The text below walks through data of US4791215A, “Derivatives of glutamic acid and aspartic acid” (priority 1984, dated 1988).

For experiment [1], the system named is CCK-8 induced contraction of guinea pig gall bladder. Description: Anti-CCK activity on gall bladder strips in vitro. As to conditions: CCK-8 10 ng/ml. The method, then:
ANTI-CCK ACTIVITY ON GUINEA PIG GALL BALDDERS IN VITRO
A longitudinal strip of guinea pig gall bladder was placed in a bath of isolated members in the presence of Krebs at a temperature of 32° C. with continuous oxygenation with an oxygen-CO2 mixture (95-5V/V).
The isometric contractions were detected by means of a force transducer and recorded.
The gall bladder was made to contract with the use of a 10 ng/ml concentration of CCK-8; the antagonistic activity of the compounds of the invention on the contracting effect of the CCK was determined with the use of different concentrations and the ED 50 value, that is the concentration in μg/ml of a compound which could antagonise 50% of the contracting effect of the CCK, was determined.

A further experiment concerns morphine analgesia. Description: Increase in analgesia of morphine, Tail Flick Test (Experiment 1). As to conditions: for percentage variation of latency of pain sensation / M (10-90) ± SE, mean percentage variation of latency: compound 10 mg/kg i.p. + morphine 2 mg/kg; for M (10-90) ± SE, mean percentage variation of latency: mean 10-90 min; for Power ratio with respect to morphine alone: rat, in vivo. Format: in vivo, rats. In short, it runs like this: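 Non-fasted male rats (150-200 g); a tail point is exposed to a 75 °C heat source and latency to tail movement recorded, 8 s cut-off. Readings taken before and 10, 20, 30, 45, 60 and 90 min after analgesic treatment; percentage variation calculated per animal.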
On the technique in general: In hot-plate and tail-flick tests a longer latency is read as antinociception.

Molecules are shown by their SMILES.

Regarding `CCCN(CCC)C(=O)C(CC(=O)O)NC(=O)c1cccc(C#N)c1` (stereo not drawn) [Compound C-22], the “ED50 (concentration antagonising 50% of contracting effect of CCK-8)” value in experiment [1] is above 200 µg/mL. In addition, the “percentage variation of latency of pain sensation” value in the experiment with morphine analgesia (10') was 82.7 ± 9.4%; in the experiment on morphine analgesia (20') it was 67.6 ± 18.0%; with morphine analgesia (30'), 88.4 ± 9.3%; with morphine analgesia (45') it was 83.3%; in the experiment with morphine analgesia (60'), 93.6 ± 6.4%; in the experiment on morphine analgesia (90') it was 53.8 ± 14.9%. Also, in the experiment on morphine analgesia, the “M (10-90) ± SE, mean percentage variation of latency” value is 78.2 ± 15.0%. The “Power ratio with respect to morphine alone” value (from here on “Power ratio”) with morphine analgesia was found to be 2.62.

Take `N#Cc1cccc(C(=O)NC(CC(=O)O)C(=O)NC2CCCCC2)c1` (stereo not drawn) [Compound C-23]: in experiment [1], the “ED50 (concentration antagonising 50% of contracting effect of CCK-8)” value was above 200 µg/mL. The “percentage variation of latency of pain sensation” value was found to be 33.1 ± 19.0% in the experiment with morphine analgesia (10'); 49.9 ± 15.0% with morphine analgesia (20'); 58.2 ± 17.0% with morphine analgesia (30'); 68.3 ± 20.0% in the experiment on morphine analgesia (45'); 72.0% with morphine analgesia (60'); 58.7 ± 22.0% with morphine analgesia (90'). For the same compound, in the experiment with morphine analgesia, the “M (10-90) ± SE, mean percentage variation of latency” value worked out at 56.7 ± 14.0%. For the same compound, the “Power ratio” value in the experiment on morphine analgesia is on record as 1.90.

Take `CCCCN(CCCC)C(=O)C(CCC(=O)O)NC(=O)c1cccc(C#N)c1` (stereo not drawn) [Compound C-24]: the “ED50 (concentration antagonising 50% of contracting effect of CCK-8)” value in experiment [1] is above 200 µg/mL. Also, the “percentage variation of latency of pain sensation” value is reported as 80.3 ± 13.6% in the experiment on morphine analgesia (10'); 87.2% in the experiment on morphine analgesia (20'); 96.9 ± 3.0% in the experiment with morphine analgesia (30'); 100.0 ± 0.0% in the experiment with morphine analgesia (45'); 74.0 ± 16.0% in the experiment on morphine analgesia (60'); 75.3 ± 14.0% in the experiment with morphine analgesia (90'). For the same compound, the “M (10-90) ± SE, mean percentage variation of latency” value in the experiment with morphine analgesia stood at 85.6 ± 11.0%. Moreover, the “Power ratio” value in the experiment on morphine analgesia is 2.87.

As for `CCCCN(CCCC)C(=O)C(CCC(=O)O)NC(=O)c1ccc(Br)cc1` (stereo not drawn) [Compound C-25], in experiment [1], the “ED50 (concentration antagonising 50% of contracting effect of CCK-8)” value stood at 30.3 µg/mL. Moreover, the “percentage variation of latency of pain sensation” value is 59.7 ± 15.0% with morphine analgesia (10'); 49.0 ± 13.0% in the experiment on morphine analgesia (20'); 71.5% with morphine analgesia (30'); 61.9 ± 22.0% with morphine analgesia (45'); 49.0 ± 22.0% in the experiment with morphine analgesia (60'); 20.4 ± 6.0% in the experiment with morphine analgesia (90'). The “M (10-90) ± SE, mean percentage variation of latency” value in the experiment with morphine analgesia amounted to 51.9 ± 18.0%. For the same compound, the “Power ratio” value in the experiment with morphine analgesia is reported as 1.74.

In the case of `O=C(O)CCC(NC(=O)c1ccc(Cl)c(Cl)c1)C(=O)N1CCCCC1` (stereo not drawn) [Compound C-26], the “ED50 (concentration antagonising 50% of contracting effect of CCK-8)” value in experiment [1] is 146.5 µg/mL. Besides, the “percentage variation of latency of pain sensation” value with morphine analgesia (10') is reported as 50.1 ± 17.0%; in the experiment with morphine analgesia (20'), 80.3 ± 20.0%; in the experiment on morphine analgesia (30'), 84.7 ± 11.0%; in the experiment with morphine analgesia (45'), 71.8 ± 15.0%; in the experiment with morphine analgesia (60') it was 32.2%; with morphine analgesia (90'), 4.9 ± 6.0%. Further, in the experiment with morphine analgesia, the “M (10-90) ± SE, mean percentage variation of latency” value amounted to 54.0 ± 31.1%. Also, the “Power ratio” value with morphine analgesia is given as 1.81.

As for `CCCN(CCC)C(=O)C(CCC(=O)O)NC(=O)c1ccc(C)cc1` (stereo not drawn) [Compound C-29], the “ED50 (concentration antagonising 50% of contracting effect of CCK-8)” value in experiment [1] is 262 µg/mL. For the same compound, the “percentage variation of latency of pain sensation” value with morphine analgesia (10') was 48.7 ± 20%; with morphine analgesia (20'), 75.5%; with morphine analgesia (30'), 73.6 ± 11%; in the experiment on morphine analgesia (45'), 70.0 ± 19%; in the experiment on morphine analgesia (60'), 47.3 ± 23%; in the experiment with morphine analgesia (90'), 6.0 ± 14%. Besides, the “M (10-90) ± SE, mean percentage variation of latency” value in the experiment with morphine analgesia is 53.5%. The “Power ratio” value with morphine analgesia was 1.80.

On to `CCCN(CCC)C(=O)C(CCC(=O)O)NC(=O)c1ccc(C)cc1C` (stereo not drawn) [Compound C-32], for which, in experiment [1], the “ED50 (concentration antagonising 50% of contracting effect of CCK-8)” value was above 300 µg/mL. The “percentage variation of latency of pain sensation” value with morphine analgesia (10') is given as 21.8 ± 5%; with morphine analgesia (20'), 58.6 ± 17%; in the experiment with morphine analgesia (30'), 83.5 ± 10%; in the experiment with morphine analgesia (45') it was 89.8 ± 8%; in the experiment on morphine analgesia (60'), 78.4 ± 13%; in the experiment with morphine analgesia (90') it was 52.2 ± 22%. Besides, the “M (10-90) ± SE, mean percentage variation of latency” value with morphine analgesia was 64.0 ± 25%. Also, the “Power ratio” value with morphine analgesia was determined as 2.15.

Turning to `CCCN(CCC)C(=O)C(CCC(=O)O)NC(=O)c1c(C)cc(C)cc1C` (stereo not drawn) [Compound C-33], in experiment [1], the “ED50 (concentration antagonising 50% of contracting effect of CCK-8)” value was 131.7 µg/mL. Also, the “percentage variation of latency of pain sensation” value is given as -0.1 ± 12% with morphine analgesia (10'); 30.9 ± 8% in the experiment on morphine analgesia (20'); 38.7% in the experiment on morphine analgesia (30'); 41.7 ± 16% in the experiment on morphine analgesia (45'); 48.7 ± 21% with morphine analgesia (60'); 46.6 ± 12% in the experiment with morphine analgesia (90'). Also, the “M (10-90) ± SE, mean percentage variation of latency” value in the experiment on morphine analgesia is on record as 34.4 ± 18%. In the experiment with morphine analgesia, the “Power ratio” value stood at 1.15.

In the case of `CCCCNC(=O)C(CCC(=O)O)NC(=O)c1ccc(C)c(C)c1` (stereo not drawn) [Compound C-42], the “ED50 (concentration antagonising 50% of contracting effect of CCK-8)” value in experiment [1] is 50.1 µg/mL. The “percentage variation of latency of pain sensation” value in the experiment on morphine analgesia (10') is 49.0 ± 31%; in the experiment with morphine analgesia (20') it was 65.9 ± 24%; in the experiment with morphine analgesia (30') it was 80.1 ± 9%; in the experiment on morphine analgesia (45'), 59.1 ± 20%; with morphine analgesia (60'), 33.5 ± 20%; in the experiment with morphine analgesia (90'), 61.4 ± 12%. Also, in the experiment on morphine analgesia, the “M (10-90) ± SE, mean percentage variation of latency” value turned out to be 58.2 ± 16%. Moreover, the “Power ratio” value in the experiment on morphine analgesia is 1.95.

For the compound `Cc1ccc(C(=O)NC(CCC(=O)O)C(=O)NC2CCCCC2)cc1C` (stereo not drawn) [Compound C-47], the “ED50 (concentration antagonising 50% of contracting effect of CCK-8)” value in experiment [1] was 35.1 µg/mL. Besides, the “percentage variation of latency of pain sensation” value in the experiment on morphine analgesia (10') is 24.5%; with morphine analgesia (20') it was 63.5 ± 18%; with morphine analgesia (30'), 52.3 ± 17%; in the experiment with morphine analgesia (45'), 80.1 ± 22%; in the experiment on morphine analgesia (60'), 73.2 ± 17%; with morphine analgesia (90') it was 49.3 ± 19%. In addition, the “M (10-90) ± SE, mean percentage variation of latency” value with morphine analgesia worked out at 57.1 ± 20%. Moreover, the “Power ratio” value in the experiment with morphine analgesia is recorded as 1.92.

For `CCc1ccc(C(=O)NC(CCC(=O)O)C(=O)NC2CCCCC2)cc1` (stereo not drawn) [Compound C-48], the “ED50 (concentration antagonising 50% of contracting effect of CCK-8)” value in experiment [1] was 119.1 µg/mL. Further, the “percentage variation of latency of pain sensation” value amounted to 42.1 ± 14% in the experiment on morphine analgesia (10'); 59.5 ± 8% in the experiment on morphine analgesia (20'); 50.1 ± 21% with morphine analgesia (30'); 78.4% in the experiment with morphine analgesia (45'); 43.7 ± 30% with morphine analgesia (60'); 44.9 ± 18% with morphine analgesia (90'). Also, the “M (10-90) ± SE, mean percentage variation of latency” value in the experiment with morphine analgesia was 53.1 ± 14%. Also, in the experiment on morphine analgesia, the “Power ratio” value stood at 1.78.
